Measured values taken from patent publication US11912695B2, “Benzodiazepine derivatives as RSV inhibitors” (ENANTA PHARMACEUTICALS, INC., priority 2019, dated 2024).

Key:
[1] = tested on: Human RSV-B (genotype B, strain 9320); assay: RSV-B assay (qPCR or ATPlite) in A549 cells; assay type: cell-based; details: human respiratory syncytial virus, 144 h, strain 9320, MOI 0.5, 6 days post infection, qPCR or ATPlite readout
Excerpt: Hep-2 cells, (originally derived from tumors grown in irradiated-cortisonised weanling rats that had been injected with epidermoid carcinoma tissue from a person's larynx, but later found to be indistinguishable from HeLa cells by PCR DNA analysis), were used for the culturing of genotype B, strain 9320. Flasks were inoculated with RSV-B and viral stocks were collected once cytopathic effect (CPE) was greater than 90%. Viral stocks in 25% sucrose media were snap frozen using liquid nitrogen to increase viral stability. Viral stock titers were quantified by tissue culture infectious dose 50% (TCID50) using 8,000 cells per well and 5-fold viral dilutions across a 96-well plate, cultured for 4 days. Viral stock titers were also quantified by a plaque forming unit assay, as described elsewhere.
The assay is run as follows: A549 cells (originally derived through explant culture from a person's carcinomatous lung tissue) are seeded into the inner 60 wells of a 96-well plate at 3,000 cells per well in a volume of 50 μL using A549 growth media (F-12K Media, 1% Penn/Strep, 1% nonessential amino acids, 10% heat-inactivated FBS). 2-fold serial dilutions of control and test compounds are added to the wells in duplicate in a total volume of 25 μL. Viral stock is then added to the wells at a multiplicity of infection (MOI) of 0.5 in a volume of 25 μL, bringing the total volume of each well to 100 μL. The MOI is calculated using the PFU/mL, or TCID50 if unavailable. Each 96-well plate has a control column of 6 wells with cells and virus but no compound (negative control, max CPE), a column with cells but no compound or virus (positive control, minimum CPE), and a column with no cells or virus or compound (background plate/reagent control). The control wells with cells but no virus are given an additional 25 μL of growth media containing an equal quantity of sucrose as those wells receiving the viral stock in order to keep consistent in media and volume conditions. The outer wells of the plate are filled with 125 μL of moat media (DMEM, 1% Penn/Strep) to act as a thermal and evaporative moat around the test wells. 6 days post infection, the plates are read using qPCR or ATP lite (50 μL added per well), which quantifies the amount of ATP (a measure of cell health) present in each well. Assay plates treated with APTlite are read using the Envision luminometer. […] EC50 ranges are as follows: A<0.4 μM; B 0.4-0.8 μM; C>0.8 μM.

[2] = tested on: Human RSV-A (“Long” strain); assay: RSV-A assay (CPE, ATPlite) in Hep-2 cells; assay type: cell-based; details: human respiratory syncytial virus, 120 h, MOI 0.1, 5-day incubation, ATPlite readout
Excerpt: Hep-2 cells, (originally derived from tumors grown in irradiated-cortisonised weanling rats that had been injected with epidermoid carcinoma tissue from a person's larynx, but later found to be indistinguishable from HeLa cells by PCR DNA analysis), were used for the culturing of genotype A, “Long” strain RSV. Flasks were inoculated with RSV and viral stocks were collected once cytopathic effect (CPE) was greater than 90%. Viral stocks in 25% sucrose media were snap frozen using liquid nitrogen to increase viral stability. Viral stock titers were quantified by tissue culture infectious dose 50% (TCID50) using 8,000 cells per well and 3-fold viral dilutions across a 96-well plate, cultured for 4 days. Viral stock titers were also quantified by a plaque forming unit assay, as described elsewhere.
Following extensive parameter testing, the final assay is run as follows: Hep-2 cells are seeded into the inner 60 wells of a 96-well plate at 8,000 cells per well in a volume of 50 μL using Growth Media (DMEM without phenol red, 1% L-Glut, 1% Penn/Strep, 1% nonessential amino acids, 10% heat-inactivated FBS). 2-fold serial dilutions of control and test compounds are added to the wells in duplicate in a total volume of 25 μL. Viral stock is then added to the wells at a multiplicity of infection (MOI) of 0.1 in a volume of 25 μL, bringing the total volume of each well to 100 μL. The MOI is calculated using the PFU/mL, or TCID50 if unavailable. Each 96-well plate has a control column of 6 wells with cells and virus but no compound (negative control, max CPE), a column with cells but no compound or virus (positive control, minimum CPE), and a column with no cells or virus or compound (background plate/reagent control). The control wells with cells but no virus are given an additional 25 μL of growth media containing an equal quantity of sucrose as those wells receiving the viral stock in order to keep consistent in media and volume conditions. The outer wells of the plate are filled with 125 μL of moat media (DMEM, 1% Penn/Strep) to act as a thermal and evaporative moat around the test wells. Following a 5-day incubation period, the plates are read using ATPlite (50 μL added per well), which quantifies the amount of ATP (a measure of cell health) present in each well. Assay plates are read using the Envision luminometer. In parallel, cytotoxicity is examined on an additional 96-well plate treated in an identical manner, but substituting the 25 μL of viral stock for 25 μL of growth media. […] EC50 ranges are as follows: A<0.4 μM; B 0.4-0.8 μM; C>0.8 μM.

Structure (SMILES)	EC50 [1] [nM]	EC50 [2] [nM]
CCc1ncc(-c2sc(C(F)(F)F)nc2-c2nnc(N[C@@H]3N=C(c4ccccc4)c4cccc(F)c4NC3=O)o2)cn1 [Example 42]	< 400	< 400
CCc1ncc(-c2sc(C3CC3)nc2-c2nnc(N[C@H]3N=C(c4ccccc4)c4cccc(F)c4NC3=O)o2)cn1 [Example 43]	< 400	< 400
CCc1ncc(-c2sc(C3CC3)nc2-c2nnc(N[C@@H]3N=C(c4ccccc4)c4cccc(F)c4NC3=O)o2)cn1 [Example 44]	< 400	< 400
O=C1Nc2c(F)cccc2C(c2ccccc2)=N[C@H]1Nc1nnc(-c2nc(C3CC3)sc2-c2cnc(C3CC3)nc2)o1 [Example 47]	< 400	< 400
O=C1Nc2c(F)cccc2C(c2ccccc2)=N[C@@H]1Nc1nnc(-c2nc(C3CC3)sc2-c2cnc(C3CC3)nc2)o1 [Example 48]	< 400	< 400
CCc1ncc(-c2sc(C3CC3)nc2-c2nnc(N[C@@H]3N=C(c4ccccc4)c4ccccc4NC3=O)o2)cn1 [Example 49]	< 400	400 to 800
CCc1ncc(-c2sc(C3CC3)nc2-c2nnc(N[C@H]3N=C(c4ccccc4)c4ccccc4NC3=O)o2)cn1 [Example 50]	< 400	< 400
CCc1nc(-c2nnc(N[C@@H]3N=C(c4ccccc4)c4cccc(F)c4NC3=O)o2)c(-c2cnc(C)nc2)s1 [Example 51]	< 400	400 to 800
CCc1nc(-c2nnc(N[C@H]3N=C(c4ccccc4)c4cccc(F)c4NC3=O)o2)c(-c2cnc(C)nc2)s1 [Example 52]	< 400	< 400
CCc1nc(-c2nnc(N[C@@H]3N=C(c4ccccc4)c4cccc(F)c4NC3=O)o2)c(-c2cnc(C3CC3)nc2)s1 [Example 53]	< 400	400 to 800
CCc1nc(-c2nnc(N[C@H]3N=C(c4ccccc4)c4cccc(F)c4NC3=O)o2)c(-c2cnc(C3CC3)nc2)s1 [Example 54]	< 400	< 400
Cc1ncc(-c2sc(C3CC3)nc2-c2nnc(N[C@@H]3N=C(c4ccccc4)c4cccc(F)c4NC3=O)o2)cn1 [Example 55]	< 400	> 800
Cc1ncc(-c2sc(C3CC3)nc2-c2nnc(N[C@H]3N=C(c4ccccc4)c4cccc(F)c4NC3=O)o2)cn1 [Example 56]	< 400	< 400
CCc1ncc(-c2sc(C3CCC3)nc2-c2nnc(N[C@H]3N=C(c4ccccc4)c4cccc(F)c4NC3=O)o2)cn1 [Example 58]	< 400	< 400
CCc1ncc(-c2sc(C3CCC3)nc2-c2nnc(N[C@@H]3N=C(c4ccccc4)c4cccc(F)c4NC3=O)o2)cn1 [Example 59]	< 400	< 400
Cc1ncc(-c2sc(C3CCC3)nc2-c2nnc(N[C@@H]3N=C(c4ccccc4)c4cccc(F)c4NC3=O)o2)cn1 [Example 60]	< 400	< 400
Cc1ncc(-c2sc(C3CCC3)nc2-c2nnc(N[C@H]3N=C(c4ccccc4)c4cccc(F)c4NC3=O)o2)cn1 [Example 61]	< 400	< 400
CCc1ncc(-c2sc(C3(C(F)(F)F)CC3)nc2-c2nnc(N[C@@H]3N=C(c4ccccc4)c4cccc(F)c4NC3=O)o2)cn1 [Example 62]	< 400	400 to 800

Structure (SMILES)	EC50 [1] [nM]	EC50 [2] [nM]
CCc1ncc(-c2sc(C3(C(F)(F)F)CC3)nc2-c2nnc(N[C@H]3N=C(c4ccccc4)c4cccc(F)c4NC3=O)o2)cn1 [Example 63]	< 400	< 400
O=C1Nc2c(F)cccc2C(c2ccccc2)=N[C@H]1Nc1nnc(-c2nc(C3CCC3)sc2-c2cnc(C3CC3)nc2)o1 [Example 64]	< 400	> 800
O=C1Nc2c(F)cccc2C(c2ccccc2)=N[C@@H]1Nc1nnc(-c2nc(C3CCC3)sc2-c2cnc(C3CC3)nc2)o1 [Example 65]	< 400	< 400
Cc1ncc(-c2sc(C3(C)CC3)nc2-c2nnc(N[C@@H]3N=C(c4ccccc4)c4cccc(F)c4NC3=O)o2)cn1 [Example 66]	< 400	400 to 800
Cc1ncc(-c2sc(C3(C)CC3)nc2-c2nnc(N[C@H]3N=C(c4ccccc4)c4cccc(F)c4NC3=O)o2)cn1 [Example 67]	< 400	< 400
CCc1ncc(-c2sc(C3(C)CC3)nc2-c2nnc(N[C@@H]3N=C(c4ccccc4)c4cccc(F)c4NC3=O)o2)cn1 [Example 68]	< 400	< 400
CCc1ncc(-c2sc(C3(C)CC3)nc2-c2nnc(N[C@H]3N=C(c4ccccc4)c4cccc(F)c4NC3=O)o2)cn1 [Example 69]	< 400	< 400
CCc1ncc(-c2sc(C3(C(F)(F)F)CC3)nc2-c2nnc(N[C@@H]3N=C(c4ccccc4)c4ccccc4NC3=O)o2)cn1 [Example 70]	> 800	> 800
CCc1ncc(-c2sc(C3(C(F)(F)F)CC3)nc2-c2nnc(N[C@H]3N=C(c4ccccc4)c4ccccc4NC3=O)o2)cn1 [Example 71]	< 400	< 400
Cc1ncc(-c2sc(C3(C(F)(F)F)CC3)nc2-c2nnc(N[C@@H]3N=C(c4ccccc4)c4cccc(F)c4NC3=O)o2)cn1 [Example 72]	< 400	> 800
Cc1ncc(-c2sc(C3(C(F)(F)F)CC3)nc2-c2nnc(N[C@H]3N=C(c4ccccc4)c4cccc(F)c4NC3=O)o2)cn1 [Example 73]	< 400	< 400
O=C1Nc2c(F)cccc2C(c2ccccc2)=N[C@H]1Nc1nnc(-c2nc(C3(C(F)(F)F)CC3)sc2-c2cnc(C3CC3)nc2)o1 [Example 74]	< 400	> 800
O=C1Nc2c(F)cccc2C(c2ccccc2)=N[C@@H]1Nc1nnc(-c2nc(C3(C(F)(F)F)CC3)sc2-c2cnc(C3CC3)nc2)o1 [Example 75]	< 400	< 400
O=C1Nc2c(F)cccc2C(c2ccccc2)=N[C@@H]1Nc1nnc(-c2ncc(C3CC3)cc2-c2cnc(C3CC3)nc2)o1 [Example 76]	< 400	< 400
O=C1Nc2ccccc2C(c2ccccc2)=N[C@@H]1Nc1nnc(-c2ncc(C3CC3)cc2-c2cnc(C3CC3)nc2)o1 [Example 77]	< 400	< 400
O=C1Nc2ccccc2C(c2ccccc2)=N[C@@H]1Nc1nnc(-c2ncc(CO)cc2-c2cnc(C3CC3)nc2)o1 [Example 97]	< 400	< 400
O=C1Nc2ccccc2C(c2ccccc2)=N[C@@H]1Nc1nnc(-c2ncc(C(F)F)cc2-c2cnc(C3CC3)nc2)o1 [Example 98]	< 400	< 400
Cc1cnc(-c2nnc(N[C@H]3N=C(c4ccccc4)c4ccccc4NC3=O)o2)c(-c2cnc(C3CC3)nc2)c1 [Example 99]	< 400	< 400
